Measured values: patent US12403144B2, “HECT E3 ligase inhibitors and uses thereof” (IFOM FONDAZIONE ISTITUTO FIRC DI ONCOLOGIA MOLECOLARE, priority 2019, dated 2025)

Target: T1, HECT domain of NEDD4 (Homo sapiens, UniProt P46934)
T1 construct: crystal structure of the HECT domain of NEDD4 in complex with compound 12; made in house
T1 sequence (P46934 519-900 isoform P46934-4 limits assumed): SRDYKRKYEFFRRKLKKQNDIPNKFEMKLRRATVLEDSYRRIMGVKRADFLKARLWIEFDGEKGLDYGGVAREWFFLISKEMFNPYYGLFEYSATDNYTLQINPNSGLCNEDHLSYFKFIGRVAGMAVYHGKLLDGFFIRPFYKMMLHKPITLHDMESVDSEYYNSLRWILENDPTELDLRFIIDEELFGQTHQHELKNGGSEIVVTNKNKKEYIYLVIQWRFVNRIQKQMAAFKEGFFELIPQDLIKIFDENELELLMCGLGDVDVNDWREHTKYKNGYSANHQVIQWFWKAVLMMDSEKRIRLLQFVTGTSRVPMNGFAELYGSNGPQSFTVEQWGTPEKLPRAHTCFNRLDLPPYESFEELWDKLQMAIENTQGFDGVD
Test: X-Ray crystal structure of the HECT domain of NEDD4 in complex with compound
Assay type: binding
Details: crystal soaking; thiol group of Cys627 attacks the α,β-unsaturated ester
Text: FIG. 2: Structure of NEDD4 HECT in complex with compound 12. a. Compound 12 (dark grey sticks representation) binding to the HECT of NEDD4 (light grey), with a Fo-Fc map, calculated omitting the ligand, contoured at 2.5α level (represented as a grey mesh). b. Details of ligand binding: compound 12 and covalently or hydrogen-bonded NEDD4 residues are in ball-and-stick representation, hydrogen bond is shown as dotted line; spoked arcs represent protein residues making nonbonded contacts with the ligand.
FIG. 3: Structure of apo NEDD4 HECT superimposed with the one of the complex HECT-compound 12. Changes in the HECT structure upon compound 12 binding. Apo-HECT (pdb entry 2xbf, version 1.2, 13 Jul. 2011) depicted as dark grey ribbon; complex depicted as light grey ribbon. Side chains of residues Glu554 and Tyr634, and to a less extent those of Tyr604 and Tyr605, as well as main and side chain of residue Cys627 (covalently bound to the inhibitor) are rearranged upon inhibitor binding.
The inventors obtained by X-Ray the crystal structure of the HECT domain of NEDD4 in complex with compound 12. […]

CCOC(=O)/C=C/CNCCCCN1c2ccccc2CCc2ccc(Cl)cc21.O=C(O)/C=C\C(=O)O [Compound 12, Ethyl (E)-4-[4-(3-chloro-10,11-dihydro-5H-dibenzo[b,f]azepin-5-yl)butylamino]but-2-enoate maleate]
binding mode in crystal structure of NEDD4 HECT complex: covalent link to the protein
